The test system of one series is L. salmonis. The experiment in a line: proof-of-concept efficacy experiment: fluralaner in feed to sea-lice-infected farmed Atlantic salmon, lice counts. The format is in vivo. As to conditions: for Average lice per fish / Total lice: 15 salmon sampled. How it is done:
(§1) A proof-of-concept experiment was carried out to determine the efficacy of fluralaner as a treatment for L. salmonis in farmed Atlantic salmon. Salmon infected with sea lice were divided evenly into three tanks, 41 fish per tank. Tank A acted as a control and no fluralaner was administered to the salmon, Tank B was given a low dog dose (25 mg/ kg of body weight) treatment and Tank C was given a high dog dose treatment (56 mg/ kg body weight). (See bravecto-epar-product-information attached for dosing rates). The powdered form of the drug was administered by mixing with standard aquaculture salmonid feed using fish oil as a binder. The experiment lasted for one week, between the 4/08/23 and the 11/08/23.

A further series has as its system Atlantic salmon. Briefly: mortality, adverse effects and behaviour of treated salmon in the proof-of-concept trial. Type of series: in vivo. How it is done: as §1
Samples have been retained for histology and residue testing.

Where [1] appears, read: Tank B, 25 mg/ kg of body weight oral in feed, 04/08/2023 (start of experiment, baseline).
The mark [2] stands for this setting: Tank C, 56 mg/ kg body weight oral in feed, 04/08/2023 (start of experiment, baseline).

Take `Cc1cc(C2=NOC(c3cc(Cl)cc(Cl)c3)(C(F)(F)F)C2)ccc1C(=O)NCC(=O)NCC(F)(F)F` (stereo not shown) [fluralaner, Fluralaner]: the “Average lice per fish” value in the series on L. salmonis (setting [1]) amounted to 25.8; in the series with L. salmonis (Tank B, 25 mg/ kg of body weight oral in feed, 11/08/2023 (after one week), control Tank A 21.9), 0.1; in the series with L. salmonis (setting [2]) it was 23.3; in the series on L. salmonis (Tank C, 56 mg/ kg body weight oral in feed, 11/08/2023 (after one week), control Tank A 21.9) it was 0. The Total lice in the series on L. salmonis (setting [1]) worked out at 387; in the series with L. salmonis (Tank B, 25 mg/ kg of body weight oral in feed, 11/08/2023 (after one week), control Tank A 329), 1; with L. salmonis (setting [2]) it was 350; in the series with L. salmonis (Tank C, 56 mg/ kg body weight oral in feed, 11/08/2023 (after one week), control Tank A 329) it was 0. Besides, the “total lice numbers on the salmon that received the treatment” value in the series with L. salmonis (after one week, control tank remained high) is “significantly reduced”. The “efficacy in treating L. salmonis in Atlantic salmon” value in the series on L. salmonis (preliminary study, oral in feed, 25 and 56 mg/kg) was “highly effective”. The mortalities result in the series on Atlantic salmon (during the trial period or since its discontinuation) is “no mortalities”. Further, the “adverse effects on the salmon” value with Atlantic salmon (trial period) is listed as “no obvious adverse effects”. Moreover, in the series with Atlantic salmon (trial period), the “behaviour of the salmon” value is reported as “normal”.

The record behind these values is patent EP4512398A1, “FLURALANER FOR USE IN METHODS OF TREATMENT AND PREVENTION OF SEA LICE INFESTATION IN FISH” (Bimeda Animal Health Limited, priority 2023, dated 2025).
